PubChem BioAssay (NCI)
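Compound exposure: 48 hours, 5 concentrations, 96-well plates. Abbreviation: GI50, concentration required for 50% inhibition of growth. TGI denotes the concentration required for complete inhibition of growth.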

Key:
Test in all cases: inhibition of tumour cell growth, NCI panel, 48 h
IGROV1 ovarian = system: IGROV1 ovarian
U251 CNS = system: U251 CNS
SN12C renal = system: SN12C renal
UACC-62 melanoma = system: UACC-62 melanoma
SK-OV-3 ovarian = system: SK-OV-3 ovarian
BT-549 breast = system: BT-549 breast
SNB-19 CNS = system: SNB-19 CNS
HOP-62 NSCLC = system: HOP-62 NSCLC

SMILES | TGI (IGROV1 ovarian) [µM] | TGI (U251 CNS) [µM] | TGI (SN12C renal) [µM] | TGI (UACC-62 melanoma) [µM] | TGI (SK-OV-3 ovarian) [µM] | TGI (BT-549 breast) [µM] | TGI (SNB-19 CNS) [µM] | TGI (HOP-62 NSCLC) [µM] | GI50 (IGROV1 ovarian) [µM] | GI50 (U251 CNS) [µM] | GI50 (SN12C renal) [µM] | GI50 (UACC-62 melanoma) [µM] | GI50 (SK-OV-3 ovarian) [µM] | GI50 (BT-549 breast) [µM] | GI50 (SNB-19 CNS) [µM] | GI50 (HOP-62 NSCLC) [µM]
O=C(O)C(CO)NC(=O)C1C(C(=O)O)C(c2ccccc2[N+](=O)[O-])C=C(c2ccco2)N1c1ccncc1 (stereo not drawn) | 4.15 | 6.21 | 25.4 | 20.3 | 29.4 | 22.8 | 24.5 | 25.2 |  |  |  |  |  |  |  | 
CCOC(=O)/C=C1/Nc2cc(F)c(F)cc2NC1=O |  | > 100 | > 100 | > 100 | > 100 | > 100 | > 100 | > 100 |  |  |  |  |  |  |  | 
CC(C)C(/C=C/c1ccccc1)=N\NC(=S)NN | > 100 | > 100 | > 100 | > 100 | > 100 | > 100 | > 100 | > 100 |  |  |  |  |  |  |  | 
CC(C)(C)c1cc(C2NC(=O)NC2=O)cc(C(C)(C)C)c1O (stereo not drawn) | > 100 | > 100 |  | > 100 | > 100 | > 100 | > 100 | > 100 |  |  |  |  |  |  |  | 
O=C1/C(=C2\SCC(=O)N2c2ccccc2)SC(=S)N1c1ccccc1 | 52.7 | > 100 | 68.6 | > 100 | 55.2 | > 100 | > 100 |  |  |  |  |  |  |  |  | 
C=C1[C@H](OCC(C)C)[C@@H](OC(=O)C(C)CC)[C@@H](O)C(C)(C)/C=C/[C@H](C)C(=O)[C@@]2(O)C[C@H](C)[C@H](O)[C@@H]2[C@H]1OC(=O)C(C)CC (stereo partly drawn) | > 20 | > 20 | > 20 | > 20 | > 20 | > 20 | > 20 | > 10.5 |  |  |  |  |  |  |  | 
CC1=CC(=O)/C(=C/N2CCNC2=S)C(=O)O1 | > 100 | > 100 | > 100 | > 100 | > 100 | > 100 | > 100 | > 100 |  |  |  |  |  |  |  | 
COC1CCC(n2c([C@@H]3CCCC(=O)N3c3ccc(F)c(F)c3)nc3cc(-c4c(C)noc4C)ccc32)CC1 (stereo partly drawn) | 25.4 | 23.8 | 29.6 | 16.1 | 18.8 | 27.2 | > 100 | > 100 | 4.61 | 10.2 | 10.3 | 2.52 | 4.09 | 10.3 | 9.31 | 4.46
C1=C[C@]2(CCC13OCCO3)COc1ccccc12 |  | > 100 | > 100 | > 100 | > 100 |  | > 100 | > 100 |  |  |  |  |  |  |  | 
C/C(=N\NC(=O)N/N=C(\C)c1ccccn1)c1ccccn1 | > 100 | > 100 | > 100 | > 100 | > 100 | 18.2 | > 100 | > 100 |  |  |  |  |  |  |  | 
Cc1ccc(C2(c3ccc(C)c(O)c3C)CCN(C)CC2)c(C)c1O | > 100 | > 100 | > 100 | > 100 |  | > 100 | > 100 | > 100 |  |  |  |  |  |  |  | 
C/C(NC(=O)c1ccccc1)=C(/C(=O)c1ccccc1)[C@@H]1OC(C)(C)O[C@@H]1[C@H]1COC(C)(C)O1 | 42 | > 100 | 60.4 | > 100 |  | 82.4 | > 100 | > 100 |  |  |  |  |  |  |  | 
OCCNc1nc2c(N3CCCC3)nc(N3CCNCC3)nc2nc1NCc1ccccc1 | 25.5 | 23.3 | 30.7 | 31.3 | 31.1 | 30.8 | 29.4 | 18.1 |  |  |  |  |  |  |  | 
C/C(=N\n1c(Cc2ccccc2)n[nH]c1=O)c1ccc([N+](=O)[O-])cc1 | > 100 | > 100 | > 100 | > 100 |  | > 100 | > 100 | > 100 |  |  |  |  |  |  |  | 
O=[N+]([O-])c1ccc(Cl)cc1N/N=C/c1cccs1 | > 100 | > 100 | > 100 | > 100 | > 100 | > 100 | > 100 | > 100 |  |  |  |  |  |  |  | 
C=CCc1cccc2cc(C(=O)Nc3nc(C45CC6CC(CC(C6)C4)C5)cs3)c(=O)oc12 | 94.5 | 41.9 | > 100 |  |  | > 100 | 64.2 | 36.3 |  |  |  |  |  |  |  | 
COc1cccc(/C=N/n2c(Cc3ccc(Cl)cc3)n[nH]c2=O)c1 | > 100 | 55.2 | 71 | > 82.9 | 81.9 | 57.1 | 67.8 | 43.9 |  |  |  |  |  |  |  | 
CCOC(=O)C1=CN(C(=O)c2ccccc2)CCC1Cc1ccccc1 (stereo not drawn) | > 100 | 51.9 | 57.4 | 31.4 | > 100 | 85.9 | > 100 | > 100 |  |  |  |  |  |  |  | 
CC(=O)N1C(OCc2ccccc2)CCN1c1ccccc1 (stereo not drawn) | > 10 |  | > 10 |  | > 10 | > 10 | > 10 | > 10 |  |  |  |  |  |  |  | 
Cn1c(=O)c2[nH]c(-n3nc(-c4ccccc4)cc3N)nc2n(C)c1=O | 37.1 | > 100 | > 100 | 27 | 20.4 | > 100 |  | > 100 |  |  |  |  |  |  |  | 
O=C1OC(C(O)C(O)C(O)CO)C(O)C1O (stereo not drawn) | > 100 | > 100 | > 100 | > 100 | > 100 | > 100 | > 100 | > 100 |  |  |  |  |  |  |  | 
CN(/N=C/c1ccc(Cl)c(Cl)c1)C1=NCCN1 | > 100 | 59.8 | 92.7 | 35.4 | 81.8 | 95.3 | > 100 | 37.7 |  |  |  |  |  |  |  | 
O=c1c(S(=O)(=O)Oc2ccccc2)coc2cc(F)ccc12 | > 100 | > 100 | > 100 | > 100 | > 100 | > 100 | > 100 | > 100 |  |  |  |  |  |  |  | 
CCc1cc2c(oc3c4ccccc4ccc23)c(=O)[nH]1 | > 10 | > 10 |  | > 10 | > 10 | > 10 | > 10 |  |  |  |  |  |  |  |  | 
Cc1ccsc1/C=N/Nc1ccccn1 | > 100 | > 100 | > 100 | > 100 | > 100 | > 100 | > 100 | > 100 |  |  |  |  |  |  |  | 
